# Biological target: human P2X7 (Homo sapiens (Human), UniProt Q99572)
# Assay: Human P2X7 functional assay (Ca2+ influx, Fluo-4, FDSS)
# Assay type: cell-based
# Conditions: antagonistic activity with respect to the human P2X7 receptor; BzATP final concentration 80 microM
# Method: The ability of the 5,6,7,8-tetrahydroquinoline and 6,7-dihydro-5H-cyclopenta[b]pyridine derivatives of the formula (I) to inhibit the P2X7 channel was measured by Ca^2+ influx assay and electrophysiology assay described below.
# Human P2X7 Functional Assay
# The functional activity of compounds was determined by measuring changes in intracellular calcium concentration using a Ca^2+-sensitive fluorescent dye, Fluo-4 (Molecular Probes). The changes in fluorescent signal were monitored by the cell imaging technology by Hamamatsu Photonics's Functional Drug Screening System (FDSS). Increases in intracellular Ca^2+ concentration were readily detected upon activation with BzATP.
# HEK293 cells stably expressing human P2X7 (GenBank accession number BC011913) carrying a C-terminal FLAG tag were grown in T225 flasks, in a 5% CO2 humidified incubator to about 80% confluence. Media composition consisted of Dulbecco's Modified Eagle Medium (high glucose), 10% fetal bovine serum ([…]), 100 units/[…] Penicillin, 100 microg/mL Streptomycin and 250 microg/mL Geneticine.
# 1. Plate-out HEK293-human P2X7 cells (40 microL medium containing 10,000 cells per well) into poly-D-lysine coated 384-well plates (Corning) at 24 h prior to assay.
# 2. Incubate at 37° C. in 5% CO2.
# 3. Incubate the plate at 37° C. in 5% CO2 for 1 h.
# 5. Test compounds were prepared at 100× the test concentration in DMSO by serial dilution with Biomek-FX liquid handling instrument. 33× diluted compound solutions in assay buffer were prepared in intermediate compound plate with Biomek-NX liquid handling instrument. A further 3× dilution occurred in below steps 6 and 7.
# 6. Add 20 microL of 33× diluted compound solutions into each well and leave the plate for 10 min under the dark at room temperature.
# 7. Measure activity by FDSS as follows: • Set the assay plate on the stacker of FDSS. • Start the detection of fluorescence intensity at 540 nm by 480 nm exicitation. • After 30 seconds, add 20 microL of assay buffer containing 240 microM BzATP (final concentration 80 microM).
# IC50 values for compounds of the present invention were determined from 7-point dose-response studies. Curves were generated using the average of duplicate wells for each data point. Finally, the IC50 values are calculated with the best-fit dose curve determined by XLfit (ID Business Solutions Ltd.).
# Sequence of human P2X7 (Q99572 whole entry): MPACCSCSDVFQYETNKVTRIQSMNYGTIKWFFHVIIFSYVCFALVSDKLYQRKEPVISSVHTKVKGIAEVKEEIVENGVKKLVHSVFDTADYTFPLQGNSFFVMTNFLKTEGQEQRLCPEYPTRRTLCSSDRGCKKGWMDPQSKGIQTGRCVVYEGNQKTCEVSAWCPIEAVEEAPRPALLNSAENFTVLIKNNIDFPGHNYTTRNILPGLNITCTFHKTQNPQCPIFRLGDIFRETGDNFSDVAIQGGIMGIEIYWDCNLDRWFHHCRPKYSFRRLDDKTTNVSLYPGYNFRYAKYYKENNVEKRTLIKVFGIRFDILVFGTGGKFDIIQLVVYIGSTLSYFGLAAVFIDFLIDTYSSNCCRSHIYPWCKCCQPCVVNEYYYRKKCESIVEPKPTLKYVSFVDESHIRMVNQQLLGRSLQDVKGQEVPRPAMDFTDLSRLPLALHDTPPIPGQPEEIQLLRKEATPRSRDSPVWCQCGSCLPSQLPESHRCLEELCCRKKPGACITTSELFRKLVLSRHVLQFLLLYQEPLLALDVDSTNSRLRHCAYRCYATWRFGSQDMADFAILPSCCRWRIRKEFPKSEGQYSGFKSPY
row,Compound,IC50
1,"O=C1CO[C@@]2(CC[C@](F)(C(=O)NCc3ccc(Cl)cc3Cl)c3cccnc32)CN1 [Example 293, (2S,5′R)-N-(2,4-dichlorobenzyl)-5′-fluoro-5-oxo-6′,7′-dihydro-5′H-spiro [morpholine-2,8′-quinoline]-5′-carboxamide]",1000 to 3000 nM
2,"O=C(NCc1ccc(Cl)cc1F)[C@@H]1CC[C@@H](O)c2ncccc21 [Example 95, (5R,8R)-N-(4-chloro-2-fluorobenzyl)-8-hydroxy-5,6,7,8-tetrahydroquinoline-5-carboxamide]",1000 to 3000 nM
3,"Cc1cnc2c(c1)[C@](F)(C(=O)NCc1ccc(F)cc1Cl)CC[C@]2(C)O [Example 276, (5S,8S)-N-(2-chloro-4-fluorobenzyl)-5-fluoro-8-hydroxy-3,8-dimethyl-5,6,7,8-tetrahydroquinoline-5-carboxamide]",301 to 1000 nM
4,"O=C(NCc1ccc(F)cc1C(F)(F)F)[C@H]1CC[C@H](O)c2ncccc21 [Example 75, (5S,8S)-N-(4-fluoro-2-(tri-fluoromethyl)benzyl)-8-hydroxy-5,6,7,8-tetra-hydroquinoline-5-carbox-amide]",1000 to 3000 nM
5,"C[C@@]1(O)CC[C@@](F)(C(=O)NCC2(N3CCOCC3)CCCCC2)c2cccnc21 [Example 275, (5S,8R)-5-fluoro-8-hydroxy-8-methyl-N-((1-morpholinocyclohexyl)methyl)-5,6,7,8-tetrahydroquinoline-5-carboxamide]",1000 to 3000 nM
6,"O=C(NCc1ccc(F)cc1F)[C@]1(F)CC[C@@H](O)c2ncccc21 [Example 109, (5S,8R)-N-(2,4-difluoro-benzyl)-5-fluoro-8-hydroxy-5,6,7,8-tetrahydroquinoline-5-carboxamide]",301 to 1000 nM
7,"O=C(NCC1(c2ccc(F)cc2)CC1)[C@]1(F)CC[C@H](O)c2ncccc21 [Example 220, (5S,8S)-5-fluoro-N-((1-(4-fluorophenyl)cyclopropyl)methyl)-8-hydroxy-5,6,7,8-tetrahydroquinoline-5-carboxamide]",301 to 1000 nM
8,"O=C(N[C@H]1CCCc2ccccc21)[C@]1(F)CC[C@H](O)c2ncccc21 [Example 218, (5S,8S)-5-fluoro-8-hydroxy-N-((S)-1,2,3,4-tetrahydronaphthalen-1-yl)-5,6,7,8-tetrahydroquinoline-5-carboxamide]",301 to 1000 nM
9,"O=C(NCc1c(F)cc(Cl)cc1Cl)[C@@]1(F)CC[C@H](O)c2ncccc21 [Example 116, (5R,8S)-N-(2,4-dichloro-6-fluorobenzyl)-5-fluoro-8-hydroxy-5,6,7,8-tetrahydroquinoline-5-carboxamide]",301 to 1000 nM
10,"O=C(N[C@@H]1C[C@H]1c1ccccc1)[C@]1(F)CC[C@H](O)c2ncccc21 [Example 222, (5S,8S)-5-fluoro-8-hydroxy-N-((1R,2S)-2-phenylcyclopropyl)-5,6,7,8-tetrahydroquinoline-5-carboxamide]",301 to 1000 nM
11,"O=C(NCc1ccccc1CN1CCOCC1)[C@]1(F)CC[C@H](O)c2ncccc21 [Example 214, (5S,8S)-5-fluoro-8-hydroxy-N-(2-(morpholinomethyl)benzyl)-5,6,7,8-tetrahydroquinoline-5-carboxamide]",101 to 300 nM
12,"O=C(NCc1ccc(Br)cc1F)[C@H]1CC[C@H](O)c2ncccc21 [Example 79, (5S,8S)-N-(4-bromo-2-fluorobenzyl)-8-hydroxy-5,6,7,8-tetrahydroquinoline-5-carboxamide]",301 to 1000 nM
13,"Cc1cc(Cl)cc(Cl)c1CNC(=O)[C@H]1CC[C@H](O)c2ncccc21 [Example 63, (5S,8S)-N-(2,4-dichloro-6-methylbenzyl)-8-hydroxy-5,6,7,8-tetrahydro-quinoline-5-carboxamide]",101 to 300 nM
14,"O=C(NCc1cccc(C(F)(F)F)c1Cl)[C@H]1CC[C@H](O)c2ncccc21 [Example 86, (5S,8S)-N-(2-chloro-3-(trifluoromethyl)benzyl)-8-hydroxy-5,6,7,8-tetra-hydroxyqinoline-5-carboxamide]",101 to 300 nM
15,"O=C(NCc1c(Cl)cc(Cl)cc1CO)[C@@]1(F)CC[C@H](O)c2ncccc21 [Example 103, (5R,8S)-N-(2,4-dichloro-6-hydroxymethylbenzyl)-5-fluoro-8-hydroxy-5,6,7,8-tetrahydroquinoline-5-carboxamide]",101 to 300 nM
16,"O=C(NCc1ccc(F)c(F)c1F)[C@H]1CC[C@H](O)c2ncccc21 [Example 71, (5S,8S)-8-hydroxy-N-(2,3,4-trifluorobenzyl)-5,6,7,8-tetrahydroquinoline-5-carboxamide]",301 to 1000 nM
17,"O=C(NCc1ccc(Cl)cc1Cl)[C@@]1(F)CC[C@H](O)c2ncccc21 [Example 105, (5R,8S)-N-(2,4-dichlorobenzyl)-5-fluoro-8-hydroxy-5,6,7,8-tetrahydroquinoline-5-carboxamide]",301 to 1000 nM
18,"Cc1ccc(CNC(=O)[C@@]2(F)CC[C@@H](O)c3ncccc32)c(Cl)c1 [Example 166, (5R,8R)-N-(2-chloro-4-methylbenzyl)-5-fluoro-8-hydroxy-5,6,7,8-tetrahydroquinoline-5-carboxamide]",101 to 300 nM
19,"O=C(NCc1ccc(Cl)cc1Cl)[C@H]1CC[C@H](O)c2ncccc21 [Example 65, (5S,8S)-N-(2,4-dichloro-benzyl)-8-hydroxy-5,6,7,8-tetrahydroquinoline-5-carboxamide]",301 to 1000 nM
20,"O=C(NCc1ccc(Cl)cc1C(F)(F)F)[C@@]1(F)CC[C@@H](O)c2ncccc21 [Example 156, (5R,8R)-N-(4-chloro-2-(trifluoromethyl)benzyl)-5-fluoro-8-hydroxy-5,6,7,8-tetrahydroquinoline-5-carboxamide]",101 to 300 nM
21,"O=C(NCc1cc(C(F)(F)F)ccc1Cl)[C@]1(F)CC[C@H](O)c2ncccc21 [Example 209, (5S,8S)-N-(2-chloro-5-(trifluoromethyl)benzyl)-5-fluoro-8-hydroxy-5,6,7,8-tetrahydroquinoline 5-carboxamide]",101 to 300 nM

# Now from value to compound:
row,IC50,Compound
1,< 50 nM,"Cc1cc(Cl)cc(Cl)c1CNC(=O)C1CCC(CC(=O)O)c2ncccc21 (stereo not shown) [Example 30, 2-(5-((2,4-dichloro-6-methyl-benzyl)carbamoyl)-5,6,7,8-tetrahydroquinolin-8-yl) acetic acid]"
2,50 to 100 nM,"O=C(NCc1ccc(Cl)cc1Cl)[C@@]1(F)CC[C@H](F)c2ncccc21 [Example 353, (5R,8S)-N-(2,4-dichlorobenzyl)-5,8-difluoro-5,6,7,8-tetrahydroquinoline-5-carboxamide]"
3,50 to 100 nM,"O=C(NCc1cccc(Cl)c1Cl)[C@@]1(F)CC[C@H](F)c2ncccc21 [Example 354, (5R,8S)-N-(2,3-dichlorobenzyl)-5.8-difluoro-5,6,7,8-tetrahydroquinaline-5-carboxamide]"
4,101 to 300 nM,"O=C(NCc1c(F)cc(Cl)cc1Cl)[C@@H]1CC[C@@H](O)c2ncccc21 [Example 91, (5R,8R)-N-(2,4-dichloro-6-fluorobenzyl)-8-hy-droxy-5,6,7,8-tetrahydro-quinoline-5-carboxamide]"
5,101 to 300 nM,"O=C(NCc1c(Cl)cc(C(F)(F)F)cc1Cl)[C@@]1(F)CC[C@H](O)c2ncccc21 [Example 112, (5R,8S)-N-(2,6-dichloro-4-(trifluoromethyl)benzyl)-5-fluoro-8-hydroxy-5,6,7,8-tetrahydroquinoline-5-carboxamide]"
6,101 to 300 nM,"COc1ccc(CNC(=O)[C@]2(F)CC[C@H](O)c3ncccc32)c(C(F)(F)F)c1 [Example 211, (5S,8S)-5-fluoro-8-hydroxy-N-(4-methoxy-2-(trifluoromethyl)benzyl)-5,6,7,8-tetrahydroquinoline-5-carboxamide]"
7,< 50 nM,"O=C(NCc1c(Cl)cc(C(F)(F)F)cc1Cl)[C@]1(F)CC[C@@H](O)c2ncccc21 [Example 113, (5S,8R)-N-(2,6-dichloro-4-(trifluoromethyl)benzyl)-5-fluoro-8-hydroxy-5,6,7,8-tetrahydroquinoline-5-carboxamide]"
8,101 to 300 nM,"O=C(NCc1c(F)cc(Cl)cc1Cl)[C@H]1CC[C@@H](O)c2ncccc21 [Example 92, (5S,8R)-N-(2,4-dichloro-6-fluorobneyzl)-8-hy-droxy-5,6,7,8-tetrahydro-quinoline-5-carboxamide]"
9,< 50 nM,"Cc1cc(Cl)cc(Cl)c1CNC(=O)[C@@]1(F)CC[C@H](O)c2ncccc21 [Example 99, (5R,8S)-N-(2,4-dichloro-6-methylbenzyl)-5-fluoro-8-hydroxy-5,6,7,8-tetrahydroquinoline-5-carboxamide]"
10,101 to 300 nM,"O=C(NCc1cccc(C(F)(F)F)c1Cl)[C@@]1(F)CC[C@H](O)c2ncccc21 [Example 101, (5R,8S)-N-(2-chloro-3-(trifluoromethyl)benzyl)-5-fluoro-8-hydroxy-5,6,7,8-tetrahydroquinoline-5-carboxamide]"
